Source: ChEMBL document CHEMBL1139416, “Synthesis of a C-glucosylated cyclopropylamide and evaluation as a glycogen phosphorylase inhibitor” (Bioorg Med Chem Lett, 2008)
Activity calls are given as the source filed them. The calls are words filed in the database; no cut-off is given here.

Key:
Oryctolagus cuniculus [1] = organism: Oryctolagus cuniculus; test: Inhibition of rabbit muscle glycogen phosphorylase b at 2.5 mM
Oryctolagus cuniculus [2] = organism: Oryctolagus cuniculus; test: Inhibition of rabbit muscle glycogen phosphorylase b at 625 uM

O=C(NC1([C@@H]2O[C@H](CO)[C@@H](O)[C@H](O)[C@H]2O)CC1)c1ccccc1
inhibition (Oryctolagus cuniculus [1]): 16%
Activity (Oryctolagus cuniculus [2]): inactive
